According to patent US8969363B2, “Heterocyclic compounds and uses thereof” (Infinity Pharmaceuticals, Inc., priority 2011, dated 2015):
Where two headings read alike, the source gives them in different places.

Columns and labels:
[1] = PBS pH 7.4, 37° C., 24 hours; cited from earlier work
[2] = system: B6.Sle1z.Sle3z model; conditions: cited from earlier work
[3] = control compounds, 5 μM; cited from earlier work
[4] = system: p190 transduced leukemic cells in mice; conditions: about 70 mg/kg twice daily; cited from earlier work
[5] = target: T1, PI3Kα (Homo sapiens, UniProt P42336); experiment: PI3 Kinase HTRF assay, PI3Kα; type: biochemical; conditions: 10 μM PIP2, 10 μM ATP; 'Greater than 10 μM' and 'Greater than 1 μM to 10 μM'; read-out: PI3K α IC50
T1 construct: purchased Millipore Corporation 14-602-K
Summary of the method: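 Recombinant PI3K converts 10 μM PIP2 with 10 μM ATP, 1 h at room temperature after 15 min compound preincubation, 2% DMSO. PIP3 detected by competitive HTRF with GRP1 PH domain; IC50 by nonlinear regression over 12 points, 20 μM to 0.1 nM.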

[6] = target: PI3Kβ; experiment: PI3 Kinase HTRF assay, PI3Kβ; type: biochemical, human; conditions: 10 μM PIP2, 10 μM ATP; 'Greater than 10 μM' and 'Greater than 1 μM to 10 μM'; read-out: PI3K β IC50
Summary of the method: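 Recombinant PI3Kβ converting PIP2 (10 μM) to PIP3 with 10 μM ATP; PIP3 detected by competitive HTRF displacement of biotin-PIP3/GST-GRP1 PH domain complex. Emission ratios converted to % inhibition; IC50 by nonlinear regression.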

[7] = system: Balb/c splenic B cells; experiment: B cell activation and proliferation assay (Alamar Blue); type: cell-based; conditions: Mus musculus, 'Less than 100 nM'
Summary of the method: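 Balb/c splenic B cells (Ficoll, then MACS purification; 50,000/well) were preincubated 30 min with compound at 0.2% final DMSO. They were then stimulated 72 h at 37 °C with a cocktail of 10 μg/ml LPS, or 5 μg/ml anti-mouse F(ab′)2 plus 2 ng/ml mouse IL4. Alamar Blue was read after 5 h at 560Ex/590Em, giving IC50 or EC50.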

[8] = system: phospho-AKT in RAJI cells (PI3Kδ); experiment: PI3Kδ selective cellular assay: phospho-AKT in anti-human IgM stimulated RAJI cells; type: cell-based; conditions: read-out: IC50 for phospho-AKT, RAJI cell model
Source text: A compound's ability in selectively inhibiting PI3Kδ can be assessed using RAJI cells, i.e., B lymphocyte cells derived from lymphoma patients. Briefly, serum-starved RAJI cells are stimulated with anti-human IgM, thereby causing signaling through the B-cell receptors, as described in, for example, He et al., Leukemia Research (2009) 33: 798-802. B-cell receptor signaling is important for the activation, differentiation, and survival of B cells and certain B-cell derived cancers. Reduction of phospho-AKT is indicative of compounds that may inhibit B-cell proliferation and function in certain diseases. By monitoring the reduction of phospho-AKT in stimulated RAJI cells (using for example, phospho-AKT antibodies), a compound's potential efficacy in selectively inhibiting PI3Kδ can be assessed.
Certain compounds provided herein (e.g., Compounds I-21, I-86, I-87, I-91, I-106, and III-13) were tested in RAJI cell model using procedures as described above.

[9] = system: phospho-AKT in RAW 264.7 cells (PI3Kγ); experiment: PI3Kγ selective cellular assay: phospho-AKT in C5a stimulated RAW 264.7 cells; type: cell-based; conditions: Mus musculus
Source text: A compound's ability in selectively inhibiting PI3Kγ can be assessed using RAW264.7 macrophages. Briefly, serum-starved PAW264.7 cells are stimulated with a known GPCR agonist C5a. (See, e.g., Camps et al., Nature Medicine (2005) 11(9): 936-943). Cells can be treated with test compounds prior to, simultaneously with, or subsequent to the stimulation by C5a. RAW 264.7 cells respond to the complement component fragment C5a through activation of the C5a receptor, and the C5a receptor activates macrophages and induces cell migration. Test compounds' ability to inhibit C5a-mediated AKT phosphorylation is indicative of selective inhibition of PI3Kγ. Thus, by monitoring the reduction of phospho-AKT in stimulated RAW 264.7 cells (using for example, phospho-AKT antibodies), a compound's potential efficacy in selectively inhibiting PI3Kγ can be assessed.
Certain compounds provided herein (e.g., Compounds I-21, I-86, I-87, I-91, I-106, and III-13) were tested in RAW 264.7 cell model using procedures as described above.

[10] = system: phospho-AKT in SKOV-3 cells (PI3Kα); experiment: PI3Kα selective cellular assay: phospho-AKT in SKOV-3 cells; type: cell-based; conditions: Homo sapiens
Source text: (§1) A compound's ability in selectively inhibiting PI3Kα can be assessed using SKOV-3 cells, i.e., human ovarian carcinoma cell line. Briefly, SKOV-3 cells, in which mutant PI3Kα is constitutively active, can be treated with test compounds. Test compounds' ability to inhibit AKT phosphorylation in SKOV-3 cells, therefore, is indicative of selective inhibition of PI3Kα. Thus, by monitoring the reduction of phospho-AKT in SKOV-3 cells (using for example, phospho-AKT antibodies), a compound's potential efficacy in selectively inhibiting PI3Kα can be assessed.
Certain compounds provided herein (e.g., Compounds I-21, I-86, I-87, I-91, and III-13) were tested in SKOV-3 cell model using procedures as described above.

[11] = system: phospho-AKT in 786-O cells (PI3Kβ); experiment: PI3Kβ selective cellular assay: phospho-AKT in 786-O cells; type: cell-based; conditions: Homo sapiens, 786-0, read-out: IC50 for phospho-AKT, 786-O cell model
Source text: as §1, with “PI3Kβ” for “PI3Kα”, “786-O” for “SKOV-3”, “kidney” for “ovarian”, “PI3Kβ” for “mutant PI3Kα”, “PI3Kβ.” for “PI3Kα.”
Certain compounds provided herein (e.g., Compounds I-21, I-86, I-87, I-91, and III-13) were tested in 786-O cell model using procedures as described above.

[12] = system: NZB/W F1 mice; conditions: prophylactic and therapeutic model; cited from earlier work
[13] = RAW264.7, read-out: IC50 for phospho-AKT, RAW 264.7 cell model
[14] = SK-OV-3, read-out: IC50 for phospho-AKT, SKOV-3 cell model
[15] = RAW264.7, range with units in value, read-out: IC50 for phospho-AKT, RAW 264.7 cell model

T1 sequence (P42336 whole entry): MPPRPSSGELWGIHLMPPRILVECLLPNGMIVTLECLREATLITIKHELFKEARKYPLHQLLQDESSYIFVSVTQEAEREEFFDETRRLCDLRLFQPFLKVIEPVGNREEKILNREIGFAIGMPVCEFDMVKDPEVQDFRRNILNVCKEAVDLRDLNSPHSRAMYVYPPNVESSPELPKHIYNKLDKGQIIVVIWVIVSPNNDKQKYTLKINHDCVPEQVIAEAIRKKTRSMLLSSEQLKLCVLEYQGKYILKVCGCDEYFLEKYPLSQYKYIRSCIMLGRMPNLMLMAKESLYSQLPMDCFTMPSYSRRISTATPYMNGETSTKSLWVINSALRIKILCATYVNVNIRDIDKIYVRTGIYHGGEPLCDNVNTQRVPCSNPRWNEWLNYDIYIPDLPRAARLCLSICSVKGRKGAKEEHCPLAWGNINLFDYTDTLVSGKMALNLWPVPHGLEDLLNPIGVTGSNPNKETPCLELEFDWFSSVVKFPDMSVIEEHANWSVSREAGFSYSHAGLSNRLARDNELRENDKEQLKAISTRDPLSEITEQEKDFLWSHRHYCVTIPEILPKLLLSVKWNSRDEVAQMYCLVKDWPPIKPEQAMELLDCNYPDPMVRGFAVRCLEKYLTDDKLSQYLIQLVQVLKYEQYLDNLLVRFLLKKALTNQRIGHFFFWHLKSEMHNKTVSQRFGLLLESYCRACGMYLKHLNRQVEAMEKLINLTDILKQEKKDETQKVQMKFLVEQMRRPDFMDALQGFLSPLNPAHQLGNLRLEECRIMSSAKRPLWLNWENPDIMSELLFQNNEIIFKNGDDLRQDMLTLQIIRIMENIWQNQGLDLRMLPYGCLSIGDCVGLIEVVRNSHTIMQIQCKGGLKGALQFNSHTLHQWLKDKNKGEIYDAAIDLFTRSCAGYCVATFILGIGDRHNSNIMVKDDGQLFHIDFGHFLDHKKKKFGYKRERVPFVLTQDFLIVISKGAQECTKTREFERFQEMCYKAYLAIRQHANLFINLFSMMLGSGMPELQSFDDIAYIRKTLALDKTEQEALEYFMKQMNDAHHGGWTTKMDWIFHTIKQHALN
T1 sequence (P27986 whole entry partner): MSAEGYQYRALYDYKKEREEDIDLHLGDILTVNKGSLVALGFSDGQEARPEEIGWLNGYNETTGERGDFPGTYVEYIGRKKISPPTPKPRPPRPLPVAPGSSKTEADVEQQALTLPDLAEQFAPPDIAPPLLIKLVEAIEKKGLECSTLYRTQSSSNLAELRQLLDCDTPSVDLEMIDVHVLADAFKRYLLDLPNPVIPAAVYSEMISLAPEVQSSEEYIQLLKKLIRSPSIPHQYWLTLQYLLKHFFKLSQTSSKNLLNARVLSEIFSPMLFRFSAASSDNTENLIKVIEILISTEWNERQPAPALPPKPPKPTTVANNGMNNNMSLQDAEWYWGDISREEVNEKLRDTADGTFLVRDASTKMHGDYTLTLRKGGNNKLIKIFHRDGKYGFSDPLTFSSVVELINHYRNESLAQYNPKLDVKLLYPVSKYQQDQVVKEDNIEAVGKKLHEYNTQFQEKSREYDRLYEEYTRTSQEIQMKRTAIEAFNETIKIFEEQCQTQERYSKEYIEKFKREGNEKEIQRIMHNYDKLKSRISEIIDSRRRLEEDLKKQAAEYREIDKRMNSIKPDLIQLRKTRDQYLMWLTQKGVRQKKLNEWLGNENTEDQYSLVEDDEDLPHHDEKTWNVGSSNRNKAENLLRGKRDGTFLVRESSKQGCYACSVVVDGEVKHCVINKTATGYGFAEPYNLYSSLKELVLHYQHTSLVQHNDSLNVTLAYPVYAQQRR
Chain of PI3Kβ (Q8BTI9 whole entry, the tested form may be a part): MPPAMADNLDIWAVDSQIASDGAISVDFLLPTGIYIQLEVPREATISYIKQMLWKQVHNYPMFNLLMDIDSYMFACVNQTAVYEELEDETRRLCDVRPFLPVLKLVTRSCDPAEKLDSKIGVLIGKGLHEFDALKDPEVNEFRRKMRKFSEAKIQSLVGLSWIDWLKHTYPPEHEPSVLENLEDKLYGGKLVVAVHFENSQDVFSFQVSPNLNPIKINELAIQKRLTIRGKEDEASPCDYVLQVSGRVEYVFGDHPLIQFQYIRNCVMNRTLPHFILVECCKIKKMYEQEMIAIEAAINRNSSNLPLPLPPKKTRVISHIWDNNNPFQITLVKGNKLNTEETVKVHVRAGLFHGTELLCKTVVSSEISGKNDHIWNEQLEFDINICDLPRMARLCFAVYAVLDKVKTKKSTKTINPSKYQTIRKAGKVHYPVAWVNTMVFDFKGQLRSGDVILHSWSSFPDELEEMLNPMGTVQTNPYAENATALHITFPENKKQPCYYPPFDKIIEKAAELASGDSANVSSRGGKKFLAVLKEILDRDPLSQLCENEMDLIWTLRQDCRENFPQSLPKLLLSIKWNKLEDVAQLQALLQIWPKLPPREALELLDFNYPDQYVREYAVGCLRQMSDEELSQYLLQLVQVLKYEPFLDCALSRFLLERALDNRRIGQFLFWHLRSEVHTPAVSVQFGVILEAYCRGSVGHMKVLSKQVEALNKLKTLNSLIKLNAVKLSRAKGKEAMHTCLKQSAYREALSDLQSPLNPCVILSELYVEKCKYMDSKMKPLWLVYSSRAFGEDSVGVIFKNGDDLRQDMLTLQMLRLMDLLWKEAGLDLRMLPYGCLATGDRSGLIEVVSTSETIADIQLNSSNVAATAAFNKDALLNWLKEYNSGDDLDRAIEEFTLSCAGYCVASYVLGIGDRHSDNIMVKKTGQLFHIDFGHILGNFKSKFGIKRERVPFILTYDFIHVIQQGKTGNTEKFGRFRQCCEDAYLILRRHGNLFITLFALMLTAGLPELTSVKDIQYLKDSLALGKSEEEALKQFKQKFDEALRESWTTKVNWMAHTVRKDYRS

IC50 [5] [µM]	IC50 [6] [µM]	IC50 [8] [µM]	IC50 [10, 14] [µM]	IC50 [11] [µM]	SMILES	EC50 [7] [µM]	other results
–	–	–	–	–	O=C(O)CCCc1ccc(N(CCCl)CCCl)cc1 [chlorambucil]	–	chemical stability [1]: largely hydrolyzed over the course of 24 hours
–	–	–	–	–	CO[C@H]1C[C@@H]2CC[C@@H](C)[C@@](O)(O2)C(=O)C(=O)N2CCCC[C@H]2C(=O)O[C@H]([C@H](C)C[C@@H]2CC[C@@H](OCCO)[C@H](OC)C2)CC(=O)[C@H](C)/C=C(\C)[C@@H](O)[C@@H](OC)C(=O)[C@H](C)C[C@H](C)/C=C/C=C/C=C/1C [RAD001, everolimus]	–	lupus symptoms [2]: ameliorate lupus symptoms
–	–	–	–	–	CCCOc1cc(N)ccc1C(=O)OCCN(CC)CC [propoxycaine]	–	plasma stability [3]: low plasma stability
–	–	–	–	–	Cc1ccc(NC(=O)c2ccc(CN3CCN(C)CC3)cc2)cc1Nc1nccc(-c2cccnc2)n1 [imatinib]	–	leukemogenesis [4]: delay but not cure leukemogenesis
–	–	–	–	–	CC(C)[N+](C)(CCOC(=O)C1c2ccccc2Oc2ccccc21)C(C)C [propantheline]	–	plasma stability [3]: intermediate plasma stability
1 to 10	> 10	< 0.1	1 to 10	1 to 10	COc1ncc(-c2cccc3nc([C@H](C)Nc4nc(N)nc5cccnc45)n(-c4ccccc4)c(=O)c23)cn1 [Compound I-86]	< 0.1	IC50 [9, 13]: < 0.1 µM
1 to 10	> 10	< 0.1	1 to 10	1 to 10	C[C@H](Nc1ncnc2cccnc12)c1cc2cccc(-c3cnn(C)c3)c2c(=O)n1-c1ccccc1 [Compound I-21]	< 0.1	IC50 [9, 15]: 0.1 to 1 µM
1 to 10	1 to 10	< 0.1	1 to 10	1 to 10	C[C@H](Nc1ncnc2[nH]cnc12)c1cc2cccc(C(F)(F)F)c2c(=O)n1-c1cccc(F)c1 [III-13]	< 0.1	IC50 [9, 15]: 0.1 to 1 µM
–	–	–	–	–	CC(C)C[C@H](NC(=O)[C@H](Cc1ccccc1)NC(=O)c1cnccn1)B(O)O [Bortezimib, bortezomib]	–	disease in the NZB/W model [12]: effective at blocking disease in the NZB/W model
1 to 10	> 10	< 0.1	–	1 to 10	C[C@H](Nc1nc(N)nc2cccnc12)c1nc2cccc(-c3cnn(C)c3)c2c(=O)n1-c1ccccc1 [Compound I-87]	< 0.1	IC50 [9, 13]: < 0.1 µM; IC50 ([10]; SK-OV-3, range with units in value, read-out: IC50 for phospho-AKT, SKOV-3 cell model): 0.1 to 1 µM
1 to 10	> 10	< 0.1	1 to 10	1 to 10	Cc1ncc(-c2cccc3nc([C@H](C)Nc4nc(N)nc5cccnc45)n(-c4ccccc4)c(=O)c23)cn1 [Compound I-91, (S)-2-(1-((2-aminopyrido[3,2-d]pyrimidin-4-yl)amino)ethyl)-5-(2-methylpyrimidin-5-yl)-3-phenylquinazolin-4(3H)-one]	< 0.1	IC50 [9, 13]: < 0.1 µM
